Measured values published in patent US4565811A, “Sodium salt of ursodeoxycholic sulphate” (Istituto Biologico Chemioterapico "ABC" S.p.A., priority 1983, dated 1986).
Structures can show the parent of a compound that is named as a salt.

Key:
[1] = Solubility in water / acidity; format: physicochemical; settings: water
rat [2] = assay: Acute toxicity of US in the rat by oral administration; format: in vivo; parameters: key to Symptomatology: N: none; D: depression; settings: for Symptomatology: 8 days; for Died animals: groups of 10, 8 days
Description: (§1) Acute toxicity of sodium ursosulphate was tested in rats by administering the different doses of the compound directly in a physiologic solution at 0.9% in a volume either of 10 ml/kg by oral route through a probe directly to the stomach or of 5 ml/kg intraperitoneously or intravenously.
(§2) The dosages administered to groups of 10 animals each are reported in the following Tables 3 to 5 together with the symptomatology observed for a period of 8 days.

[3] = as above; format: in vivo; parameters: key to Symptomatology: N: none; D: depression; settings: rat, in vivo
Description: as §1, §2

rat [4] = assay: Acute toxicity of US in the rat by intraperitoneal administration; format: in vivo; parameters: key to Symptomatology: N: none; D: depression; settings: for Symptomatology: 8 days; for Died animals: groups of 10, 8 days
Description: as §1, §2

[5] = as above; format: in vivo; parameters: key to Symptomatology: N: none; D: depression; settings: rat, in vivo, ip
Description: as §1, §2

rat [6] = assay: Acute toxicity of US in the rat by intravenous route; format: in vivo; parameters: key to Symptomatology: N: none; D: depression; settings: for Symptomatology: 8 days; for Died animals: groups of 10, 8 days
Description: as §1, §2

[7] = as above; format: in vivo; parameters: key to Symptomatology: N: none; D: depression; settings: rat, in vivo
Description: as §1, §2

[8] = Toxicity of sodium ursosulphate compared with ursodeoxycholic acid; settings: in vivo
[9] = test system: hyperdislipidemia caused by Triton WR-1339 in the rat; assay: Action on the hyperdislipidemia caused by Triton WR-1339 in the rat; format: in vivo, Albinus rats (Witar); settings: for Alfa-Lipoproteins: Increase towards Group 2 / Beta-Lipoproteins: Inhibition towards Group 2 / Beta/alfa ratio: Inhibition towards Group 2 / Total cholesterol: Inhibition in comparison with Group 2 / Total lipids: Inhibition in comparison with Group 2 / Triglycerids: Inhibition in comparison with Group 2: vs Group 2 (Triton control); for Activity compared with UA: oral
Description: Action on the hyperdislipidemia caused by Triton WR-1339 in the rat
Albinus rats (Witar) of 300-320 g each, having been fed only with water "ad libitum" for 12 hours, were treated with US and UA, by oral route, 4 hours before and 15 hours after the administration intraperitenously of Triton WR-1339 at the dosage of 300 mg/kg in 10 ml/kg of physiologic solution at 0.9%.
US and UA dosages were 25, 50 and 100 mg/kg respectively and the rats were divided in the following groups of 10 animals each.
Group 1: Controls treated with 10 ml/kg of physiological solution at 0.9% orally.
Group 2: Controls treated with 300 mg/kg of Triton WR-1339 i.p. and 10 ml/kg of carboxy methyl cellulose (CMC) at 0.5%.
Group 3, 4 and 5: UA at 25, 50 and 100 mg/kg respectively suspended in 10 ml/kg of CMC at 0.5%.
Groups 6, 7 and 8: US at 25, 50 and 100 mg/kg respectively dissolved in 10 ml/kg of physiologic solution.
The following Tables 1 and 2 list the results of blood-tests from addominal aorta of rats sacrificed 5 hours after the last treatment: […]

[10] = rat, up to the administered doses
[11] = 25 mg/kg os, Triton WR-1339 rat
[12] = 50 mg/kg os, Triton WR-1339 rat
[13] = 100 mg/kg os, Triton WR-1339 rat

CC(CCC(=O)O)C1CCC2C3C(OS(=O)(=O)O)CC4CC(OS(=O)(=O)O)CCC4(C)C3CCC12C (stereo not drawn) [US, sodium salt of ursodeoxycholic O-sulphate]
Solubility in water ([1]; listed as Sodium ursosulphate): very soluble in water
Solubility in water ([1]; listed as sodium ursosulphate): very soluble in water
Symptomatology (rat [2]; 1000 mg/kg): N
Died animals (rat [2]; 1000 mg/kg): 0 animals
Symptomatology (rat [2]; 2000 mg/kg): N
Died animals (rat [2]; 2000 mg/kg): 0 animals
Symptomatology (rat [2]; 3000 mg/kg): D
Died animals (rat [2]; 3000 mg/kg): 0 animals
Symptomatology (rat [2]; 4000 mg/kg): D
Died animals (rat [2]; 4000 mg/kg): 0 animals
Symptomatology (rat [2]; 5000 mg/kg): D
Died animals (rat [2]; 5000 mg/kg): 2 animals
Symptomatology (rat [2]; 6000 mg/kg): D
Died animals (rat [2]; 6000 mg/kg): 4 animals
LD50 (rat [2]; [10]): the LD50 was not reached up to the administered doses
mortality at 192 h ([3]; 1000 mg/kg): 0%
mortality at 192 h ([3]; 2000 mg/kg): 0%
mortality at 192 h ([3]; 3000 mg/kg): 0%
mortality at 192 h ([3]; 4000 mg/kg): 0%
mortality at 192 h ([3]; 5000 mg/kg): 20%
mortality at 192 h ([3]; 6000 mg/kg): 40%
Symptomatology (rat [4]; 500 mg/kg): N
Died animals (rat [4]; 500 mg/kg): 0 animals
Symptomatology (rat [4]; 600 mg/kg): N
Died animals (rat [4]; 600 mg/kg): 0 animals
Symptomatology (rat [4]; 700 mg/kg): D
Died animals (rat [4]; 700 mg/kg): 0 animals
Symptomatology (rat [4]; 800 mg/kg): D
Died animals (rat [4]; 800 mg/kg): 0 animals
Symptomatology (rat [4]; 900 mg/kg): D
Died animals (rat [4]; 900 mg/kg): 2 animals
LD50 (rat [4]; [10]): the LD50 was not reached up to the administered doses
mortality at 192 h ([5]; 500 mg/kg): 0%
mortality at 192 h ([5]; 600 mg/kg): 0%
mortality at 192 h ([5]; 700 mg/kg): 0%
mortality at 192 h ([5]; 800 mg/kg): 0%
mortality at 192 h ([5]; 900 mg/kg): 10%
Symptomatology (rat [6]; 400 mg/kg): N
Died animals (rat [6]; 400 mg/kg): 0 animals
Symptomatology (rat [6]; 500 mg/kg): N
Died animals (rat [6]; 500 mg/kg): 0 animals
Symptomatology (rat [6]; 600 mg/kg): D
Died animals (rat [6]; 600 mg/kg): 0 animals
Symptomatology (rat [6]; 650 mg/kg): D + C
Died animals (rat [6]; 650 mg/kg): 1 animals
Symptomatology (rat [6]; 700 mg/kg): D + C
Died animals (rat [6]; 700 mg/kg): 1 animals
Symptomatology (rat [6]; 750 mg/kg): D + C
Died animals (rat [6]; 750 mg/kg): 2 animals
LD50 (rat [6]; [10]): the LD50 was not reached up to the administered doses
mortality at 192 h ([7]; 400 mg/kg): 0%
mortality at 192 h ([7]; 500 mg/kg): 0%
mortality at 192 h ([7]; 600 mg/kg): 0%
mortality at 192 h ([7]; 650 mg/kg): 10%
mortality at 192 h ([7]; 700 mg/kg): 10%
mortality at 192 h ([7]; 750 mg/kg): 20%
Toxicity compared with ursodeoxycholic acid [8]: does not show any significative differences and maintains the values already known for ursodeoxycholic acid
Alfa-Lipoproteins Average ± SD [9, 11]: 29,2 ± 6,7 mg/100 ml serum
Beta-Lipoproteins Average ± SD [9, 11]: 191,5 ± 42,1 mg/100 ml serum
Beta/alfa ratio Average ± SD [9, 11]: 7,23 ± 3,6 mg/100 ml serum
Total cholesterol Average ± SD [9, 11]: 220,8 ± 36,4 mg/100 ml serum
Total lipids Average ± SD [9, 11]: 2697,1 ± 706,8 mg/100 ml serum
Triglycerids Average ± SD [9, 11]: 1040,6 ± 91,08 mg/100 ml serum
Alfa-Lipoproteins: Increase towards Group 2 ([9]; 25 mg/kg os): +30,4%
Beta-Lipoproteins: Inhibition towards Group 2 ([9]; 25 mg/kg os): -29,9%
Beta/alfa ratio: Inhibition towards Group 2 ([9]; 25 mg/kg os): -42,0%
Total cholesterol: Inhibition in comparison with Group 2 ([9]; 25 mg/kg os): -25,4%
Total lipids: Inhibition in comparison with Group 2 ([9]; 25 mg/kg os): -29,4%
Triglycerids: Inhibition in comparison with Group 2 ([9]; 25 mg/kg os): -20,7%
Alfa-Lipoproteins Average ± SD [9, 12]: 39,32 ± 5,5 mg/100 ml serum
Beta-Lipoproteins Average ± SD [9, 12]: 123,8 ± 27,7 mg/100 ml serum
Beta/alfa ratio Average ± SD [9, 12]: 3,15 ± 1,1 mg/100 ml serum
Total cholesterol Average ± SD [9, 12]: 163,2 ± 25,7 mg/100 ml serum
Total lipids Average ± SD [9, 12]: 1972,6 ± 550,0 mg/100 ml serum
Triglycerids Average ± SD [9, 12]: 654,3 ± 206,5 mg/100 ml serum
Alfa-Lipoproteins: Increase towards Group 2 ([9]; 50 mg/kg os): +75,4%
Beta-Lipoproteins: Inhibition towards Group 2 ([9]; 50 mg/kg os): -54,7%
Beta/alfa ratio: Inhibition towards Group 2 ([9]; 50 mg/kg os): -74,7%
Total cholesterol: Inhibition in comparison with Group 2 ([9]; 50 mg/kg os): -44,3%
Total lipids: Inhibition in comparison with Group 2 ([9]; 50 mg/kg os): -48,4%
Triglycerids: Inhibition in comparison with Group 2 ([9]; 50 mg/kg os): -50,1%
Alfa-Lipoproteins Average ± SD [9, 13]: 44,8 ± 8,5 mg/100 ml serum
Beta-Lipoproteins Average ± SD [9, 13]: 102,3 ± 36,9 mg/100 ml serum
Beta/alfa ratio Average ± SD [9, 13]: 2,46 ± 1,2 mg/100 ml serum
Total cholesterol Average ± SD [9, 13]: 147,2 ± 31,3 mg/100 ml serum
Total lipids Average ± SD [9, 13]: 1949,7 ± 273,9 mg/100 ml serum
Triglycerids Average ± SD [9, 13]: 583,4 ± 121,1 mg/100 ml serum
Alfa-Lipoproteins: Increase towards Group 2 ([9]; 100 mg/kg os): +100%
Beta-Lipoproteins: Inhibition towards Group 2 ([9]; 100 mg/kg os): -72,6%
Beta/alfa ratio: Inhibition towards Group 2 ([9]; 100 mg/kg os): -80,3%
Total cholesterol: Inhibition in comparison with Group 2 ([9]; 100 mg/kg os): -50,3%
Total lipids: Inhibition in comparison with Group 2 ([9]; 100 mg/kg os): -48,9%
Triglycerids: Inhibition in comparison with Group 2 ([9]; 100 mg/kg os): -55,5%
Dose dependence of activity inhibiting the hyperdislipidemia ([9]; 25, 50 and 100 mg/kg oral, Triton WR-1339 rat): depends on the dosage
Activity compared with UA ([9]; Triton WR-1339 rat): more active than UA in all the considered tests
Activity compared with UA ([9]; Triton WR-1339 rat, listed as sodium ursosulphate (US)): an activity in some cases higher than that of ursodeoxycholic acid
